Four molecules from patent US20240301141A1, “SILICONE POLYMER COMPOUND AND TRANSDERMAL DELIVERY SYSTEM COMPRISING SAME” (UNIVERSITY-INDUSTRY COOPERATION GROUP OF KYUNG HEE …, priority 2021, published 2024) can be followed below.

For one data set, the system named is red blood cells. As to the kind of experiment: Hemolysis analysis of mouse red blood cells. It counts as cell-based. As to conditions: 37° C., 1 hour, absorption 492 nm. The procedure: In addition, for hemolysis analysis, a blood sample was obtained from the heart of the mouse anesthetized with isoflurane, and then centrifuged at 4° C. (3000 rpm, 3 min) with cold 1×PBS (1 mL, 3 times) to collect red blood cells. The purified red blood cells were treated with 100 μL of 8% (v/v) each of PBS and the C2 compound and further incubated at 37° C. for 1 hour. The mixture was then collected using centrifugation at 4° C.

The subject of data set [1] is B16F10 (mouse murine melanoma cell line) cells. The protocol:
Specifically, B16F10 (mouse murine melanoma cell line) cells were transplanted into the left or right thigh (subcutaneously) of the mouse (6-week-old female Balb/c nude) on day 0 to induce melanoma tumor, and then after 10 days later (tumor size=about 200 mm^3), melanoma model mice were divided into 3 groups (5 mice per group), and each group was administered with 100 μL of PBS, SN-38 (3 mM), or C2+SN-38 (C2 compound encapsulated with SN-38 anticancer agent) by topical application on days 10, 12, 13, and 14 ((a) of FIG. 27). In order to determine toxicity and therapeutic effects in melanoma model mice for 16 days, changes in body weight and tumor volume were measured every 2 to 3 days. At the end of the experiment (day 15), the body of each mouse was photographed with a digital camera to determine the shape and size of the tumor, and at the end of the experiment (day 16), the tumor was extracted from the mouse. The extracted tumor tissue (harvested tumor) was photographed with a digital camera, and the size and volume thereof were measured. In addition, for hemolysis analysis, red blood cells purified from the blood sample obtained from the mouse heart were treated with 100 μL of PBS (negative control), SN-38 (3 mM), C2+SN-38, and Triton-X (0.1% (v/v); positive control) at 8% (v/v), respectively, and further incubated at 37° C. for 1 hour, and then the mixture was centrifuged at 4° C. (3000 rpm, 3 min) and the UV/vis absorption peak (492 nm) of the final obtained supernatant was measured at 25° C.

Another data set has as its system skin of mouse. As to the kind of experiment: Skin penetration efficiency, fluorescence of oil red O in skin sections. The format is in vivo. The procedure: Specifically, 100 μL each of oil red O-loaded C2 compound (C2; […]) and oil red O (OR; 100 μL, stock solution: 24 μM in PBS (1% ethanol)) were applied to the skin, and after 24 and 48 hours, the skin tissue was sectioned, and then the fluorescence of oil red O was tracked (excitation: 559 nm, detection: 636±20 nm) using a fluorescence microscope, and quantified and plotted using the Image-J program.
Here, (b, c) of FIG. 25 and (e, f) of FIG. 25 show the fluorescence intensity plot of Oil red O or the C2 compound (C2) loaded with Oil red O along the yellow dotted line in the images of (a) of FIG. 25 and (d) of FIG. 25, respectively.

In the next data set the test system is mice. As to the kind of experiment: Biocompatibility / immunotoxicity in mice (application behind the ears). As to conditions: mouse, in vivo. The protocol: Specifically, 25 μL each of phosphate-buffered saline (PBS) as a negative control, eugenol (Eug) inducing immunotoxicity as a positive control, and a C2 compound in the PDDS series were applied behind the ears of mice for 3 days, and after 6 days, the change in body weight, the feed intake and water intake, the weight of auricular lymph nodes, the number of lymph node cells, the stimulation index, and the concentrations of histamine and immunoglobulin E in the blood were measured.

A short description of data set [2]: Water contact angle on coated slide glass. It counts as physicochemical. The settings on record: distilled water on coated slide glass. The procedure:
Specifically, a monomer and PDDS series compounds were applied onto a slide glass from Marienfeld using a 100 μL pipette, respectively, and then the monomer and the PDDS series were uniformly coated on the slide glass while the slide glass was tilted left and right. The monomer and the PDDS series were coated for about 1 hour in a fume hood, and then 100 μL each of the monomer and PDDS series were dropped again, and coated without an empty portion of the slide glass by repeating the process two more times. Thereafter, distilled water was dropped on the surface of the coated glass slide using a contact angle meter from Kruss and the contact angles were analyzed.

Molecules are shown by their SMILES.

Take `CCc1c2c(nc3ccc(O)cc13)-c1cc3c(c(=O)n1C2)COC(=O)[C@]3(O)CC` [SN-38, 7-ethyl-10-hydroxycamptothecin]: the “hemolysis rate in red blood cells” value in the data set on red blood cells is “severe hemolysis”. Besides, the “change in body weight” value in data set [1] (melanoma xenograft mouse, topical on days 10, 12, 13, 14) was “no significant change”. Also, in data set [1] (tumor extracted day 16), the “average tumor volume of extracted tumor” value was 1689±498.6 mm^3 and the “tumor growth / tumor size of extracted tumor tissue” value is “only slightly reduced tumor growth”.

On to `Cc1ccc(C)c(N=Nc2cc(C)c(N=Nc3c(O)ccc4ccccc34)cc2C)c1` [oil red O], for which the “absorption of oil red O in skin tissue (fluorescence)” value with skin of mouse (24 hours after application) and in the data set with skin of mouse (48 hours after application) was “hardly absorbed into the subcutaneous tissue” throughout.

`C=CCc1ccc(O)c(OC)c1` [eugenol]: in the data set with mice, the “feed intake and water intake” value was “took less feed and water”; the “number of lymph node cells (BrdU assay)” value is given as “statistically significant increase”; the stimulation index entry is listed as “statistically significant increase”.

Molecule `C[Si]1(C)CC[Si](C)(C)O1` [monomer, 2,2,5,5-tetramethyl-2,5-disila-1-oxacyclopentane] returned a Contact angle in data set [2] of 69.0±1.2 °.
